What all share (type): physicochemical
The nature of series [1]: Dynamic surface tension of aqueous solutions, maximum-bubble pressure method. To be noted: for γ (0.1 wt % solution) (1 b/s) / γ (0.1 wt % solution) (6 b/s): 0.1 wt % solution in water. On the procedure: Solutions of the citramides of Examples 1-4 in distilled water were prepared. Dynamic surface tension data were obtained using the maximum-bubble pressure method at bubble rates from 0.1 bubbles/second (b/s) to 20 b/s as described in Langmuir 1986, 2, 428-432. […] In practical terms, high bubble rates correspond to high printing speeds in lithographic printing, high spray or roller velocities in coating applications, rapid application rates for agricultural products and electronics cleaning and processing.
(§1) The solubility limits of Examples 6 and 7 were determined by intersection of the linear portion of a surface tension/In (concentration) curve with the limiting surface tension as is described in many textbooks. Since Example 8 contained insoluble material at 0.005 wt %, the solubility limit is reported as <0.005 wt %. Also, the solubility limit of ˜10 wt % reported for Example 1 is the lowest concentration at which a significant amount of insoluble material was seen. The relative efficiency of surfactants can be obtained by comparing surface tension reduction of solutions containing the same amount of different surfactants. Such data is given for 0.1 wt % solutions of the tri-alkylcitramides at 1.0 and 6.0 b/s. The limiting surface tensions at 0.1, 1, 6 and 20 b/s represent the lowest surface tensions in water which can be achieved at the given surface creation rates for a given surfactant regardless of the amount of surfactant used and is used to evaluate the effectiveness of a surfactant. These values give information about the relative ability of a surfactant to reduce surface defects under near-equilibrium conditions (0.1 b/s) through very dynamic conditions (20 b/s). Lower surface tensions would allow the elimination of defects upon application of a formulation onto lower energy surfaces.

The nature of series [2]: Solubility limit in water. On the procedure:
as §1

Series [3] can be described thus: Foam test based upon ASTM D 1173-53. Conditions: 0.1 wt % solution; for initial foam: foam height at completion of addition. On the procedure:
The foaming properties of a 0.1 wt % solutions of the tri-alkylcitramides (N,N′,N″-tri-n-propylcitramide, N, N′, N″-tri-n-butylcitramide, N, N′, N″-tri-iso-butylcitramide and N,N′,N″-tri-iso-amylcitramide) were examined using a procedure based upon ASTM D 1173-53. In this test, a 0.1 wt % solution of the citramide surfactant was added from an elevated glass pipette to a receiver containing the same solution. The foam height was measured at the completion of the addition (“Initial Foam Height”) and the time required for the foam to dissipate at the air-liquid interface (“Time to 0 Foam”) was recorded. This test provided a comparison between the foaming characteristics of the various citramides. In general, in coatings, inks, adhesives, agricultural and electronics cleaning formulations, foam is undesirable because it complicates handling and can lead to coating and print defects, and to inefficient application of materials.

Where [4] appears, read: limiting surface tension in water, 0.1 bubbles/second.
Where [5] appears, read: limiting surface tension in water, 1 bubble/second.
The mark [6] stands for this setting: limiting surface tension in water, 6 bubbles/second.
The mark [7] stands for this setting: limiting surface tension in water, 20 bubbles/second.
The mark [8] stands for this setting: in water, from observed insoluble material.

Molecules are shown by their SMILES. Marks after values point to notes of the source that are not given here.

Regarding `CCCNC(=O)CC(O)(CC(=O)NCCC)C(=O)NCCC` [Example 1, N,N′,N″-tri-n-propylcitramide], the “γ (0.1 wt % solution) (1 b/s)” value in series [1] (1 b/s) worked out at 66.7 Dyne/cm. In addition, in series [1] (6 b/s), the “γ (0.1 wt % solution) (6 b/s)” value stood at 67.2 Dyne/cm. In series [1] (setting [4]), the “γ limiting (0.1 b/s)” value came to 42.9 Dyne/cm. Also, in series [1] (setting [5]), the “γ limiting (1 b/s)” value worked out at 43.1 Dyne/cm. In series [1] (setting [6]), the “γ limiting (6 b/s)” value was determined as 43.7 Dyne/cm. Besides, the “γ limiting (20 b/s)” value in series [1] (setting [7]) amounted to 44.9 Dyne/cm. The solubility limit result in series [2] (in distilled water) was “˜10 Weight %”; in series [2] (setting [8]) it was about 10 wt %. Moreover, the “time to zero foam” value in series [3] came to 10 s. In addition, in series [3], the initial foam was found to be 2.8 cm.

With `CCCCNC(=O)CC(O)(CC(=O)NCCCC)C(=O)NCCCC` [Example 2, N,N′,N″-tri-n-butylcitramide], the “γ (0.1 wt % solution) (1 b/s)” value in series [1] (1 b/s) is on record as 51.2 Dyne/cm. Also, the “γ (0.1 wt % solution) (6 b/s)” value in series [1] (6 b/s) is listed as 52.6 Dyne/cm. Further, the “γ limiting (0.1 b/s)” value in series [1] (setting [4]) amounted to 43.6 Dyne/cm. Further, in series [1] (setting [5]), the “γ limiting (1 b/s)” value stood at 43.9 Dyne/cm. Further, the “γ limiting (6 b/s)” value in series [1] (setting [6]) turned out to be 44.6 Dyne/cm. Also, the “γ limiting (20 b/s)” value in series [1] (setting [7]) stood at 46.2 Dyne/cm. For the same compound, the “relative solubility in water” value in series [2] (in comparison to N,N′,N″-tri-iso-butylcitramide) is listed as “more soluble”. Further, in series [2] (in distilled water), the solubility limit is recorded as 0.4 Weight %. In series [3], the “time to zero foam” value came to 9 s and the initial foam is 1.3 cm.

For the compound `CC(C)CNC(=O)CC(O)(CC(=O)NCC(C)C)C(=O)NCC(C)C` [Example 3, N,N′,N″-tri-iso-butylcitramide], the “γ (0.1 wt % solution) (1 b/s)” value in series [1] (1 b/s) is listed as 51.8 Dyne/cm. Also, in series [1] (6 b/s), the “γ (0.1 wt % solution) (6 b/s)” value is 52.5 Dyne/cm. Besides, the “γ limiting (0.1 b/s)” value in series [1] (setting [4]) amounted to 46.6 Dyne/cm. For the same compound, the “γ limiting (1 b/s)” value in series [1] (setting [5]) is on record as 46.8 Dyne/cm. Further, in series [1] (setting [6]), the “γ limiting (6 b/s)” value came to 47.3 Dyne/cm. Further, in series [1] (setting [7]), the “γ limiting (20 b/s)” value is given as 48.4 Dyne/cm. Further, in series [2] (in distilled water), the solubility limit stood at 0.2 Weight %. Besides, in series [3], the “time to zero foam” value amounted to 10 s and the initial foam is recorded as 1.0 cm.

On to `CC(C)CCNC(=O)CC(O)(CC(=O)NCCC(C)C)C(=O)NCCC(C)C` [Example 4, N,N′,N″-tri-iso-amylcitramide], for which the “γ (0.1 wt % solution) (1 b/s)” value in series [1] (1 b/s) came to 63.3 Dyne/cm. Further, the “γ (0.1 wt % solution) (6 b/s)” value in series [1] (6 b/s) is 66.6 Dyne/cm. In series [1] (added to water at 5 wt %, material remained undissolved, 0.1 b/s), the “dynamic surface tension (0.1 b/s)” value is listed as 45.7 dyne/cm. The “dynamic surface tension (1 b/s)” value in series [1] (added to water at 5 wt %, material remained undissolved, 1 b/s) came out at 45.9 dyne/cm. The “dynamic surface tension (6 b/s)” value in series [1] (added to water at 5 wt %, material remained undissolved, 6 b/s) came to 46.4 dyne/cm. For the same compound, in series [1] (added to water at 5 wt %, material remained undissolved, 20 b/s), the “dynamic surface tension (20 b/s)” value came to 47.4 dyne/cm. Further, in series [1] (limiting γ at 0.005 wt. % surfactant, 0.1 b/s), the “γ limiting (0.1 b/s)” value is recorded as 51.6^c Dyne/cm. Besides, the “γ limiting (1 b/s)” value in series [1] (limiting γ at 0.005 wt. % surfactant, 1 b/s) is 62.6^c Dyne/cm. Further, the “γ limiting (6 b/s)” value in series [1] (limiting γ at 0.005 wt. % surfactant, 6 b/s) is reported as 67.0^c Dyne/cm. Also, the “γ limiting (20 b/s)” value in series [1] (limiting γ at 0.005 wt. % surfactant, 20 b/s) is 71.4^c Dyne/cm. In series [2] (in distilled water), this compound registered a solubility limit of under 0.005 Weight %. Moreover, the solubility limit in series [2] (setting [8]) is under 0.005 wt %. Further, in series [3], the “time to zero foam” value was determined as 2 s and the initial foam was found to be 1.3 cm.

For the origin of these results see US6399088B1, “Citric acid tri-alkylamide surfactants” (Air Products and Chemicals, Inc., priority 2000, dated 2002).
